22 molecules from patent US8846951B2 (AbbVie Inc., priority 2009, dated 2014) can be followed below.

Read-outs that look alike come from different tables or passages of the source.

The target in one experiment is T1, 5HT2C receptors (Homo sapiens, UniProt P28335).
T1 sequence (P28335 33-458): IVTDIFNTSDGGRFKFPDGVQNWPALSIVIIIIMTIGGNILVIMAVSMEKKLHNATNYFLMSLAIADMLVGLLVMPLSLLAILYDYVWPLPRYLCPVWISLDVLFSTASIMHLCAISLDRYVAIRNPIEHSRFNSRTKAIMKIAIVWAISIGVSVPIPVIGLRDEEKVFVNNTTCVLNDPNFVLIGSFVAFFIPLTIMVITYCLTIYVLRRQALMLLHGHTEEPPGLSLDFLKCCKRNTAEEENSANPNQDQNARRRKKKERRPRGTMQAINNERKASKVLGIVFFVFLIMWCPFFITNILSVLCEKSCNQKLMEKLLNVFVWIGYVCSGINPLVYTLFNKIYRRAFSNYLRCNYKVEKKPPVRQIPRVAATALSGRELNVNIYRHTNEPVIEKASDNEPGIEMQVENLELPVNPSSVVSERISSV
Nature of the experiment: Human 5-HT2C functional high throughput screening assay in CHO-K1 cells (calcium flux). Also noted: expressed in transfected cells; host or cells: CHO-K1 cells. Format: cell-based. The settings on record: for EC50: CHO-K1 cells, calcium flux; for Emax: CHO-K1, 5-HT2C, maximum functional response as percentage relative to the effect of serotonin. Summed up:
(§1)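 Agonism is measured as intracellular calcium increase in receptor-overexpressing CHO-K1 cells, read by FLIPR at 25 °C. Responses are expressed relative to serotonin, with EC50 and Emax derived from a 4-parameter logistic curve over 6 concentrations starting at 10 μM.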
Background: Calcium flux is commonly read through the fluorescence of an indicator in the cells.

A further experiment has as its target T2, 5HT2B receptors (Homo sapiens, UniProt P41595).
T2 construct: expressed in transfected cells; host or cells: CHO-K1 cells
The experiment is described as follows: Human 5-HT2B functional high throughput screening assay in CHO-K1 cells (calcium flux). It is filed as cell-based. The conditions noted are these: for EC50: CHO-K1 cells, calcium flux. Summed up: as §1

Where [1] appears, read: 5-HT2C agonist activity, read-out: EC50.
Where [2] appears, read: 5-HT2B agonist activity, read-out: EC50.
The mark [3] stands for this setting: 5-HT2B, maximum functional response as percentage relative to the effect of serotonin.

For orientation: EC50 means the concentration needed to bring the measured effect to its halfway point. One may read the Emax as the greatest response seen or fitted, relative to the assay's reference.

T2 sequence (P41595 whole entry): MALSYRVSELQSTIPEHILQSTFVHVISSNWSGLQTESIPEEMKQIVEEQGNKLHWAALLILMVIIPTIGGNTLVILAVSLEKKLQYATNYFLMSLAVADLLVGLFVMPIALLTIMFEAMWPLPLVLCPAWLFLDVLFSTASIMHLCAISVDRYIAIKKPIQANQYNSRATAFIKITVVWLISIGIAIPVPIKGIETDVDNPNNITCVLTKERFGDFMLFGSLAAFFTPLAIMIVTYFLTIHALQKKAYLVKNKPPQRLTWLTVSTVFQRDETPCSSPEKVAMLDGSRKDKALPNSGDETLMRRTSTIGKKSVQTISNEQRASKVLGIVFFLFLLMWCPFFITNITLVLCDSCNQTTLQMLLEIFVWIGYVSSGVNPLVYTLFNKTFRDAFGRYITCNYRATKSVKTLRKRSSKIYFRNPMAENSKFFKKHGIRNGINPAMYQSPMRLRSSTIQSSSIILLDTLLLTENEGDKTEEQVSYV

With `CN1C[C@@H]2CNC(=O)c3cc(OCc4cc(F)cc(F)c4)ccc3[C@H]2C1` [Example 208, (3aS,10bS)-8-(3,5-Difluorobenzyloxy)-2-methyl-1,2,3,3a,4,5-hexahydrobenzo[e]pyrrolo[3,4-c]azepin-6(10bH)-one], the EC50 is 2 nM at 5HT2C receptors (setting [1]) and more than 10000 nM on 5HT2B receptors (setting [2]). For the same molecule, the Emax is more than 120% on 5HT2C receptors (read-out: Emax) and “inactive” on 5HT2B receptors (setting [3]).
As to `CN1C[C@@H]2CNC(=O)c3cc(OCc4c(F)cccc4F)ccc3[C@H]2C1` [Example 209, (3aS,10bS)-8-(2,6-Difluorobenzyloxy)-2-methyl-1,2,3,3a,4,5-hexahydrobenzo[e]pyrrolo[3,4-c]azepin-6(10bH)-one], the concentration for a half-maximal effect (EC50) was 1 nM at 5HT2C receptors (setting [1]) and more than 10000 nM at 5HT2B receptors (setting [2]). Besides, the figures for the Emax at 5HT2C receptors (read-out: Emax) and on 5HT2B receptors (setting [3]) were more than 120% and “inactive”, respectively.
For `CN1C[C@@H]2CNC(=O)c3cc(OCc4ccc(F)c(F)c4)ccc3[C@H]2C1` [Example 210, (3aS,10bS)-8-(3,4-Difluorobenzyloxy)-2-methyl-1,2,3,3a,4,5-hexahydrobenzo[e]pyrrolo[3,4-c]azepin-6(10bH)-one], in that order: 2 nM, more than 10000 nM, more than 120% and “inactive”.
Taken in the same sequence, the figures for `CN1C[C@@H]2CNC(=O)c3cc(OCc4ccc(F)cc4)ccc3[C@H]2C1` [Example 211, (3aS,10bS)-8-(4-Fluorobenzyloxy)-2-methyl-1,2,3,3a,4,5-hexahydrobenzo[e]pyrrolo[3,4-c]azepin-6(10bH)-one] were 2 nM, more than 10000 nM, more than 120% and “inactive”.
Taken in the same sequence, the figures for `CN1C[C@@H]2CNC(=O)c3cc(OCc4cccc(F)c4F)ccc3[C@H]2C1` [Example 212, (3aS,10bS)-8-(2,3-Difluorobenzyloxy)-2-methyl-1,2,3,3a,4,5-hexahydrobenzo[e]pyrrolo[3,4-c]azepin-6(10bH)-one] were 0.9 nM, more than 10000 nM, more than 120% and “inactive”.
As to `CN1C[C@@H]2CNC(=O)c3cc(OCc4c(F)ccc(F)c4F)ccc3[C@H]2C1` [Example 213, (3aS,10bS)-2-Methyl-8-(2,3,6-trifluorobenzyloxy)-1,2,3,3a,4,5-hexahydrobenzo[e]pyrrolo[3,4-c]azepin-6(10bH)-one], the EC50 on 5HT2C receptors (setting [1]) is 1 nM; on 5HT2B receptors (setting [2]) it was more than 10000 nM. Also, the Emax was more than 120% on 5HT2C receptors (read-out: Emax) and “inactive” on 5HT2B receptors (setting [3]).
For the molecule `O=C1NC[C@H]2CNC[C@@H]2c2ccc(-c3ccc(F)cc3)cc21` [Example 220, (3aR,10bS)-8-(4-Fluorophenyl)-1,2,3,3a,4,5-hexahydrobenzo[e]pyrrolo[3,4-c]azepin-6(10bH)-one], the EC50 is less than 0.1 nM on 5HT2C receptors (setting [1]) and more than 10000 nM on 5HT2B receptors (setting [2]). In addition, the maximum response (Emax) was more than 120% on 5HT2C receptors (read-out: Emax) and “inactive” on 5HT2B receptors (setting [3]).
For the molecule `O=C1NC[C@@H]2CNC[C@H]2c2ccc(-c3ccc(F)cc3)cc21` [Example 221, (3aS,10bR)-8-(4-Fluorophenyl)-1,2,3,3a,4,5-hexahydrobenzo[e]pyrrolo[3,4-c]azepin-6(10bH)-one], the Emax at 5HT2C receptors (read-out: Emax) was more than 120%; at 5HT2B receptors (setting [3]), “inactive”. For the same molecule, the EC50 on 5HT2B receptors (setting [2]) is more than 10000 nM.
`CN1C[C@@H]2CNC[C@H]2c2ccc(F)cc2C1=O` [Example 226, (3aS,10bR)-8-Fluoro-5-methyl-1,2,3,3a,4,5-hexahydrobenzo[c]pyrrolo[3,4-e]azepin-6(10bH)-one]: the Emax at 5HT2C receptors was more than 120%; at 5HT2B receptors (setting [3]), “inactive”. The EC50 on 5HT2B receptors (EC50, 5-HT2B agonist activity) is more than 10000 nM.
`CN1C[C@@H]2CNC(=O)c3cc(-c4cccc(S(C)(=O)=O)c4)ccc3[C@H]2C1` [Example 228, (3aS,10bS)-2-Methyl-8-(3-(methylsulfonyl)phenyl)-1,2,3,3a,4,5-hexahydrobenzo[c]pyrrolo[3,4-e]azepin-6(10bH)-one]: the EC50 on 5HT2C receptors (setting [1]) was 7 nM; on 5HT2B receptors (setting [2]), more than 10000 nM. Also, the figures for the Emax on 5HT2C receptors (read-out: Emax) and on 5HT2B receptors (setting [3]) were more than 120% and “inactive”, respectively.
Consider `CN1C[C@H]2CNC(=O)c3cc(-c4cccc(S(C)(=O)=O)c4)ccc3[C@@H]2C1` [Example 229, (3aR,10bR)-2-Methyl-8-(3-(methylsulfonyl)phenyl)-1,2,3,3a,4,5-hexahydrobenzo[c]pyrrolo[3,4-e]azepin-6(10bH)-one], for which the values for the Emax on 5HT2C receptors (read-out: Emax) and at 5HT2B receptors (setting [3]) were 90% and “inactive”, respectively. For the same molecule, the EC50 on 5HT2B receptors (setting [2]) is more than 10000 nM.
Consider `Clc1ccc2c(c1)[C@H]1CNC[C@@H]1CCO2` [Example 233, (3aR,10bS)-9-Chloro-2,3,3a,4,5,10b-hexahydro-1H-[1]benzoxepino[4,5-c]pyrrole], for which the Emax on 5HT2C receptors is more than 120%; at 5HT2B receptors (CHO-K1) it was 55%.
With `CN1C[C@@H]2CCOc3ccc(Cl)cc3[C@H]2C1` [Example 234, (3aR,10bS)-9-Chloro-2-methyl-2,3,3a,4,5,10b-hexahydro-1H-[1]benzoxepino[4,5-c]pyrrole], the Emax on 5HT2C receptors was more than 120%; on 5HT2B receptors (CHO-K1), 70%. In addition, the EC50 on 5HT2C receptors (EC50, 5-HT2C agonist activity) was determined as 10 nM; at 5HT2B receptors (EC50, 5-HT2B agonist activity), 10 nM.
For the molecule `CN1C[C@@H]2CCOc3ccccc3[C@H]2C1` [Example 235, (3aR,10bS)-2-Methyl-2,3,3a,4,5,10b-hexahydro-1H-[1]benzoxepino[4,5-c]pyrrole], the Emax is 120% on 5HT2C receptors and 45% on 5HT2B receptors (CHO-K1). Further, the EC50 came to 40 nM on 5HT2C receptors (EC50, 5-HT2C agonist activity) and 100 nM on 5HT2B receptors (EC50, 5-HT2B agonist activity).
Regarding `C[C@H](O)c1cccc(-c2ccc3c(c2)C(=O)NC[C@H]2CN(C)C[C@H]32)c1` [Example 248, (3aS,10bS)-8-(3-((S)-1-Hydroxyethyl)phenyl)-2-methyl-1,2,3,3a,4,5-hexahydrobenzo[e]pyrrolo[3,4-c]azepin-6(10bH)-one], the EC50 on 5HT2C receptors (setting [1]) was 2 nM; at 5HT2B receptors (setting [2]) it was more than 10000 nM. Further, the Emax on 5HT2C receptors (read-out: Emax) is 100%; on 5HT2B receptors (setting [3]), “inactive”.
Taken in the same sequence, the figures for `C[C@@H](O)c1cccc(-c2ccc3c(c2)C(=O)NC[C@H]2CN(C)C[C@H]32)c1` [Example 249, (3aS,10bS)-8-(3-((R)-1-Hydroxyethyl)phenyl)-2-methyl-1,2,3,3a,4,5-hexahydrobenzo[e]pyrrolo[3,4-c]azepin-6(10bH)-one] were 2 nM, more than 10000 nM, 100% and “inactive”.
As for `COc1ccc2c(c1)[C@H]1CNC[C@@H]1CCC2=O` [Example 259, (3aR,10bS)-9-Methoxy-2,3,3a,4,5,10b-hexahydrobenzo[3,4]cyclohepta[1,2-c]pyrrol-6(1H)-one], the maximum response (Emax) was more than 120% on 5HT2C receptors and 85% at 5HT2B receptors (CHO-K1). For the same molecule, the concentration for a half-maximal effect (EC50) on 5HT2C receptors (EC50, 5-HT2C agonist activity) stood at 60 nM; on 5HT2B receptors (EC50, 5-HT2B agonist activity), 1000 nM.
`c1ccc2c(c1)OCC[C@H]1CNC[C@H]21` [Example 270, (3aR,10bS)-2,3,3a,4,5,10b-Hexahydro-1H-[1]benzoxepino[4,5-c]pyrrole]: the results for the Emax on 5HT2C receptors and at 5HT2B receptors (CHO-K1) were more than 120% and 50%, respectively. Besides, the EC50 at 5HT2C receptors (EC50, 5-HT2C agonist activity) was determined as 10 nM; at 5HT2B receptors (EC50, 5-HT2B agonist activity), 200 nM.
For `c1ccc2c(c1)OCC[C@@H]1CNC[C@@H]21` [Example 271, (3aS,10bR)-2,3,3a,4,5,10b-Hexahydro-1H-[1]benzoxepino[4,5-c]pyrrole], in that order: 120%, 30%, 400 nM and 5000 nM.
Regarding `CN1C[C@@H]2CNC(=O)c3cc(OCc4ccccc4)ccc3[C@H]2C1` [Example 274, (3aS,10bS)-8-(Benzyloxy)-2-methyl-1,2,3,3a,4,5-hexahydrobenzo[e]pyrrolo[3,4-c]azepin-6(10bH)-one], the values for the Emax at 5HT2C receptors and at 5HT2B receptors (setting [3]) were more than 120% and “inactive”, respectively. Further, the EC50 at 5HT2C receptors (EC50, 5-HT2C agonist activity) is 3 nM; at 5HT2B receptors (EC50, 5-HT2B agonist activity), more than 10000 nM.
In the case of `COc1ccccc1-c1ccc2c(c1)C(=O)NC[C@H]1CN(C)C[C@H]21` [Example 275, (3aS,10bS)-8-(2-Methoxyphenyl)-2-methyl-1,2,3,3a,4,5-hexahydrobenzo[e]pyrrolo[3,4-c]azepin-6(10bH)-one], the figures for the EC50 on 5HT2C receptors (setting [1]) and at 5HT2B receptors (setting [2]) were 20 nM and more than 10000 nM, respectively. The Emax at 5HT2C receptors (read-out: Emax) is more than 120%; on 5HT2B receptors (setting [3]), “inactive”.
`CN1C[C@@H]2CNC(=O)c3cc(OCC4CC4)ccc3[C@H]2C1` [Example 277, (3aS,10bS)-8-(Cyclopropylmethoxy)-2-methyl-1,2,3,3a,4,5-hexahydrobenzo[e]pyrrolo[3,4-c]azepin-6(10bH)-one]: the maximum response (Emax) was 100% on 5HT2C receptors and “inactive” at 5HT2B receptors (setting [3]). For the same molecule, the EC50 was 10 nM at 5HT2C receptors (EC50, 5-HT2C agonist activity) and more than 10000 nM on 5HT2B receptors (EC50, 5-HT2B agonist activity).
